According to patent publication US9187472B2 (AbbVie Inc., priority 2012, dated 2015):

Legend:
PC3 cells = assay: NAMPT Cell Proliferation Assay; format: cell-based; conditions: Homo sapiens, PC-3, 120 h, 5 days incubation, cell viability by Cell Titer Glo
Procedure, shortened: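 Seed PC3 at 500 cells/well (RPMI, 10% HI-FBS), attach overnight; add compound, 10-fold series 10 μM → 1×10^−5 μM; incubate 5 d, 37° C/5% CO2; luminescent viability readout; fit % inhibition sigmoidally for IC50.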

[1] = molecular target: NAMPT (human, recombinant, C-terminally His-tagged) (Homo sapiens, UniProt P43490); assay: Time-Resolved Fluorescence Resonance Energy Transfer (TR-FRET) Binding Assay of NAMPT; conditions: without substrates; 6.8 nM NAMPT, 200 nM probe, 3 hours equilibration
NAMPT (human, recombinant, C-terminally His-tagged), sequence (P43490 whole entry): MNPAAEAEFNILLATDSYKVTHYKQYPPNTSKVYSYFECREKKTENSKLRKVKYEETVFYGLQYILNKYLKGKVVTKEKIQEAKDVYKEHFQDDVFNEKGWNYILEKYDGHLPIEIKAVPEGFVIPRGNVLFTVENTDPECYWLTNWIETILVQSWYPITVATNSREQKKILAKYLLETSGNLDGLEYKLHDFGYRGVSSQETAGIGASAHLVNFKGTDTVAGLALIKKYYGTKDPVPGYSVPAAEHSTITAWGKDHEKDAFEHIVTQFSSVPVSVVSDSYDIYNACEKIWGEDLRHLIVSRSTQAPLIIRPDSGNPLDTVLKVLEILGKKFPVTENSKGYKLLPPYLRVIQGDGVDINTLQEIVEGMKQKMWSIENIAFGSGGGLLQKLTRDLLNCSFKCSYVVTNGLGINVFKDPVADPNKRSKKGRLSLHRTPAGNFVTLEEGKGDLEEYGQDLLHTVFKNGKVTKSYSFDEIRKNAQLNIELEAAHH
Method: Determination of the utility of compounds having Formula (I) as binders to and inhibitors of NAMPT was performed using Time-Resolved Fluorescence Resonance Energy Transfer (TR-FRET) binding assays.
Time-Resolved Fluorescence Resonance Energy Transfer (TR-FRET) Binding Assay of NAMPT
Test compounds were serially diluted (typically 11 half log dilutions) in neat DMSO to 50× final concentrations prior to dilution with assay buffer (50 mM HEPES (NaOH), pH 7.5, 100 mM NaCl, 10 mM MgCl2, 1 mM DTT, 1% Glycerol) to 3× and 6% DMSO. Six μL were transferred to 384-well low-volume plates (Owens Corning #3673). To this, […] of a 1.5× solution containing enzyme, probe and antibody were added. Final concentrations in the 18 μL, reactions were 1× assay buffer, 2% DMSO, 6.8 nM NAMPT (human, recombinant, C-terminally His-tagged), 200 nM probe (a potent nicotinamide-competitive inhibitor conjugated to Oregon Green 488) and 1 nM Tb-anti-His antibody (Invitrogen # PV5895). Reactions were equilibrated at room temperature for 3 hours prior to reading on an Envision multi-label plate reader (Perkin Elmer; Ex=337 nm, Em=520 and 495 nm). Time-resolved FRET ratios (Em520/Em495) were normalized to controls, plotted as a function of compound concentration and fit with the four-parameter logistic equation to determine IC50s.

NAMPT = NAMPT (Homo sapiens, UniProt P43490); assay: TR-FRET Binding Assay of NAMPT with PRPP; conditions: with 200 μM PRPP and 2.5 mM ATP; 2 nM NAMPT, 2 nM probe, 16 hours equilibration
NAMPT, sequence (P43490 whole entry): as above
Method: Time-Resolved Fluorescence Resonance Energy Transfer (TR-FRET) Binding Assay of NAMPT with PRPP
Compound handling and data processing were identical to the assay in the absence of substrates (above). Final concentrations were 1× assay buffer, 2% DMSO, 2 nM NAMPT, 2 nM probe, 1 nM Tb-anti-His antibody (Invitrogen # PV5895), 200 μM PRPP and 2.5 mM ATP. Reactions were equilibrated for 16 hours prior to measurement to allow for potential enzymatic modification of test compounds.

| Structure (SMILES) | IC50 (PC3 cells) [nM] | IC50 [1] [nM] | IC50 (NAMPT) [nM] |
| --- | --- | --- | --- |
| CC(C)(O)C(=O)N1CC(c2ccc(NC(=O)NCc3ccn4ccnc4c3)cc2)C1 [Example 457, 1-{4-[1-(2-hydroxy-2-methylpropanoyl)azetidin-3-yl]phenyl}-3-(imidazo[1,2-a]pyridin-7-ylmethyl)urea] | 194 | 1140 | 0.487 |
| O=C(NCc1ccn2ccnc2c1)c1ccc(C2CN(C(=O)CC3CC3)C2)cc1 [Example 548, 4-[1-(cyclopropylacetyl)azetidin-3-yl]-N-(imidazo[1,2-a]pyridin-7-ylmethyl)benzamide] | 74.5 | 397 | 0.471 |
| O=C(NCc1ccn2ccnc2c1)c1cnc(C2=CCN(C(=O)c3ccccc3)CC2)s1 [Example 297, 2-(1-benzoyl-1,2,3,6-tetrahydropyridin-4-yl)-N-(imidazo[1,2-a]pyridin-7-ylmethyl)-1,3-thiazole-5-carboxamide] | 35.8 | 177 | 0.286 |
| O=C(NCc1ccn2ccnc2c1)c1ccc(C2CN(C(=O)CC3CCCC3)C2)cc1 [Example 629, 4-[1-(cyclopentylacetyl)azetidin-3-yl]-N-(imidazo[1,2-a]pyridin-7-ylmethyl)benzamide] | 65.2 | 230 | 0.643 |
| COCCC(=O)N(Cc1ccc(C#N)cc1)c1ccc(C(=O)NCc2ccc3nccn3c2)cc1 [Example 240, 4-[(4-cyanobenzyl)(3-methoxypropanoyl)amino]-N-(imidazo[1,2-a]pyridin-6-ylmethyl)benzamide] | 651 | 7350 | 8.75 |
| CC1(Cn2cc(-c3ccc(C(=O)NCc4ccc5ncnn5c4)o3)cn2)CCOCC1 [Example 822, 5-{1-[(4-methyltetrahydro-2H-pyran-4-yl)methyl]-1H-pyrazol-4-yl}-N-([1,2,4]triazolo[1,5-a]pyridin-6-ylmethyl)furan-2-carboxamide] | 71.1 | 104 | 3.46 |
| CCC(=O)N1CCC(c2ccc(C(=O)NCc3ccn4ccnc4c3)cc2)CC1 [Example 532, N-(imidazo[1,2-a]pyridin-7-ylmethyl)-4-(1-propanoylpiperidin-4-yl)benzamide] | 92.7 | 338 | 0.178 |
| O=C(NCc1ccn2ccnc2c1)c1ccc(N2C[C@@H](O)CC2=O)s1 [Example 268, 5-[(4S)-4-hydroxy-2-oxopyrrolidin-1-yl]-N-(imidazo[1,2-a]pyridin-7-ylmethyl)thiophene-2-carboxamide] | 5540 | 755 | 0.169 |
| CC(C)(C)C(=O)N1CCC(c2ccc(C(=O)NCc3ccn4ccnc4c3)cc2)C1 (stereo not drawn) [Example 585, 4-[1-(2,2-dimethylpropanoyl)pyrrolidin-3-yl]-N-(imidazo[1,2-a]pyridin-7-ylmethyl)benzamide] | 34.6 | 641 | 0.648 |
| O=C(NCc1ccn2ccnc2c1)c1ccc(C(=O)NC[C@@H]2CCOC2)cc1 [Example 394, N-(imidazo[1,2-a]pyridin-7-ylmethyl)-N′-[(3S)-tetrahydrofuran-3-ylmethyl]benzene-1,4-dicarboxamide] | > 10000 | > 10000 | 3.08 |
| O=C(NCc1ccn2ccnc2c1)Nc1ccc(C2=CCN(C(=O)c3ccccc3)CC2)cc1F [Example 438, 1-[4-(1-benzoyl-1,2,3,6-tetrahydropyridin-4-yl)-2-fluorophenyl]-3-(imidazo[1,2-a]pyridin-7-ylmethyl)urea] | 42.5 | 145 | 0.427 |
| CC(C)C(=O)N1CC[C@@H](Oc2ccc(C(=O)NCc3ccn4ccnc4c3)cc2)C1 [Example 492, N-(imidazo[1,2-a]pyridin-7-ylmethyl)-4-{[(3R)-1-(2-methylpropanoyl)pyrrolidin-3-yl]oxy}benzamide] | 1270 | > 10000 | 0.863 |
| O=C(NCc1ccn2ccnc2c1)Nc1ccc(Oc2ccccc2)cc1 [Example 496, 1-(imidazo[1,2-a]pyridin-7-ylmethyl)-3-(4-phenoxyphenyl)urea] | 7140 | 199 | 1.14 |
| COCCC(=O)N(C[C@@H]1CCCO1)c1ncc(C(=O)NCc2ccc3nccn3c2)s1 [Example 148, N-(imidazo[1,2-a]pyridin-6-ylmethyl)-2-{(3-methoxypropanoyl)[(2S)-tetrahydrofuran-2-ylmethyl]amino}-1,3-thiazole-5-carboxamide] | 41.5 | 6230 | 1.35 |
| O=C(NCc1ccn2ccnc2c1)Nc1ccc(OC2CCN(C(=O)c3ccc(F)c(F)c3)CC2)cc1 [Example 729, 1-(4-{[1-(3,4-difluorobenzoyl)piperidin-4-yl]oxy}phenyl)-3-(imidazo[1,2-a]pyridin-7-ylmethyl)urea] | 45.9 | 428 | 0.765 |

Further compounds by falling IC50 (PC3 cells), results first:

| IC50 (PC3 cells) [nM] | IC50 [1] [nM] | IC50 (NAMPT) [nM] | Structure (SMILES) |
| --- | --- | --- | --- |
| 34.1 | 549 | 0.172 | O=C(NCc1ccn2ccnc2c1)c1cnc(N2C(=O)OC[C@H]2COCc2ccccc2)s1 [Example 187, 2-{(4R)-4-[(benzyloxy)methyl]-2-oxo-1,3-oxazolidin-3-yl}-N-(imidazo[1,2-a]pyridin-7-ylmethyl)-1,3-thiazole-5-carboxamide] |
| 24 | 126 | 0.276 | COc1ccc(C(=O)N2CCC(c3ccc(C(=O)NCc4ccn5ccnc5c4)cc3)CC2)cc1 [Example 528, N-(imidazo[1,2-a]pyridin-7-ylmethyl)-4-[1-(4-methoxybenzoyl)piperidin-4-yl]benzamide] |
| 17.6 | 3370 | 2.3 | COCCNC(=O)N(C[C@@H]1CCCO1)c1ncc(C(=O)NCc2ccc3nccn3c2)s1 [Example 155, N-(imidazo[1,2-a]pyridin-6-ylmethyl)-2-{[(2-methoxyethyl)carbamoyl][(2S)-tetrahydrofuran-2-ylmethyl]amino}-1,3-thiazole-5-carboxamide] |
| 12.4 | 130 | 0.575 | CC(C)(O)Cn1cc(-c2ccc(C(=O)NCc3ccn4ccnc4c3)o2)cn1 [Example 483, 5-[1-(2-hydroxy-2-methylpropyl)-1H-pyrazol-4-yl]-N-(imidazo[1,2-a]pyridin-7-ylmethyl)furan-2-carboxamide] |
| 9.92 | 62 | 0.545 | Cc1ccsc1C(=O)N1CC(c2ccc(C(=O)NCc3ccn4ccnc4c3)cc2)C1 [Example 670, N-(imidazo[1,2-a]pyridin-7-ylmethyl)-4-{1-[(3-methylthiophen-2-yl)carbonyl]azetidin-3-yl}benzamide] |
| 6.99 | 173 | 0.672 | CCC(C)(C)C(=O)N1CC(c2ccc(C(=O)NCc3ccn4ccnc4c3)cc2)C1 [Example 647, 4-[1-(2,2-dimethylbutanoyl)azetidin-3-yl]-N-(imidazo[1,2-a]pyridin-7-ylmethyl)benzamide] |
| 6.59 | 118 | 0.19 | CC(C)(C)OC(=O)N1CCC(c2ccc(NC(=O)NCc3ccn4ccnc4c3)cc2)CC1 [Example 216, tert-butyl 4-(4-{[(imidazo[1,2-a]pyridin-7-ylmethyl)carbamoyl]amino}phenyl)piperidine-1-carboxylate] |
| 2.49 | 13 | 0.57 | CC1(Cn2cc(-c3ccc(C(=O)NCc4ccn5ccnc5c4)s3)cn2)CCN(C(=O)OC(C)(C)C)CC1 [Example 755, tert-butyl 4-[(4-{5-[(imidazo[1,2-a]pyridin-7-ylmethyl)carbamoyl]thiophen-2-yl]-1H-pyrazol-1-yl)methyl}-4-methylpiperidine-1-carboxylate] |
| 2.43 | 48.6 | 0.247 | CC(C)CC(=O)N1CCC(c2ccc(C(=O)NCc3ccn4ccnc4c3)s2)CC1 [Example 263, N-(imidazo[1,2-a]pyridin-7-ylmethyl)-5-[1-(3-methylbutanoyl)piperidin-4-yl]thiophene-2-carboxamide] |
| 0.319 | 13.8 | 0.169 | CC1(Cn2cc(-c3ccc(C(=O)NCc4ccn5ccnc5c4)s3)cn2)CCCCO1 (stereo not drawn) [Example 465, N-(imidazo[1,2-a]pyridin-7-ylmethyl)-5-{1-[(2-methyltetrahydro-2H-pyran-2-yl)methyl]-1H-pyrazol-4-yl}thiophene-2-carboxamide] |
